Measured values reported in patent US9896441B2 (Lycera Corporation, priority 2014, dated 2018).
pEC50: −log10 of the molar value. “And” between values parts separate entries of the source, which are not always exact repeats. Equal entries are not always repeated.

Biological target: T1, RORγ-LBD (Homo sapiens, UniProt P51449)
T1 construct: made in house; host or cells: SF9 cells (baculovirus); used as diluted lysate
T1 sequence (P51449 269-508 limits assumed): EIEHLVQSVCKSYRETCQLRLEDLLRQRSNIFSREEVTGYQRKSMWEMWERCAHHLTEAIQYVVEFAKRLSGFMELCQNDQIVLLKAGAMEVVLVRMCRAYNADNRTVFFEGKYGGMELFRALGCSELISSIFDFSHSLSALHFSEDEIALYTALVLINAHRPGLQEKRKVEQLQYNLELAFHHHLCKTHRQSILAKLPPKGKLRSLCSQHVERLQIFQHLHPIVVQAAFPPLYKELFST
Assay: RORγ-Ligand Binding Domain (LBD) TR-FRET Assay;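 as to TR-FRET Assay Max Response: 665/615 nm signal ratio set to 100 without ursolic acid or test compound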
Format: biochemical
Details: for TR-FRET Assay Max Response: maximum response
Description: Assay procedures and results are described below.
HIS-tagged RORγ-LBD protein was expressed in SF9 cells using a baculovirus expression system. The lysate was diluted in assay buffer (50 mM Tris pH 7.0, 50 mM KCl, 1 mM EDTA, 0.1 mM DTT, 0.01% BSA) to obtain RORγ-LBD final concentration of ˜3 nM in a 384-well assay plate (need to titrate for each batch of protein).
A stock of biotinylated-LXXLL peptide from coactivator SRC1 (Biotin-[…]) was prepared in assay buffer and added to each well (200 nM final concentration). […] RORγ antagonist ursolic acid was also included at a final concentration of 2 μM. Compounds were diluted in DMSO and further diluted in assay buffer with a final DMSO concentration at 1%.

pEC50 (RORγ-LBD TR-FRET)	pEC50 (RORγ-LBD TR-FRET assay)	SMILES	TR-FRET Assay Max Response (RORγ-LBD TR-FRET assay)
< 5.00		O=C(O)CC[C@H]1CN(S(=O)(=O)c2cccc(C(F)(F)F)c2)c2cc(/C=C/c3cccc4cn[nH]c34)ccc2O1 [Example 89BL, (S,E)-3-(6-(2-(1H-indazol-7-yl)vinyl)-4-((3-(trifluoromethyl)phenyl)sulfonyl)-3,4-dihydro-2H-benzo[b][1,4]oxazin-2-yl)propanoic acid]	
> 6.30		COC(=O)CC[C@H]1CN(S(=O)(=O)c2cccc(C(F)(F)F)c2)c2cc(/C=C/c3c(C)noc3C)ccc2O1 [Example 89BS, (S,E)-methyl 3-(6-(2-(3,5-dimethylisoxazol-4-yl)vinyl)-4-((3-(trifluoromethyl)phenyl)-sulfonyl)-3,4-dihydro-2H-benzo[b][1,4]-oxazin-2-yl)propanoate]	
< 5.00		CC(=O)c1cccc(/C=C/c2ccc3c(c2)N(S(=O)(=O)c2cccc(C(F)(F)F)c2)C[C@H](CCC(=O)O)O3)n1 [Example 89BX, (S,E)-3-(6-(2-(6-acetylpyridin-2-yl)vinyl)-4-((3-(trifluoromethyl)-phenyl)sulfonyl)-3,4-dihydro-2H-benzo[b][1,4]oxazin-2-yl)propanoic acid]	
< 5.00		CCCn1ccc(/C=C/c2ccc3c(c2)N(S(=O)(=O)c2cccc(C(F)(F)F)c2)C[C@H](CCC(=O)O)O3)n1 [Example 89BZ, (S,E)-3-(6-(2-(1-propyl-1H-pyrazol-3-yl)vinyl)-4-((3-(trifluoromethyl)phenyl)sulfonyl)-3,4-dihydro-2H-benzo[b][1,4]oxazin-2-yl)propanoic acid]	
5.30 to 6.30		O=C(O)CC[C@H]1CN(S(=O)(=O)c2cccc(C(F)(F)F)c2)c2cc(/C=C/c3c(Cl)cc(Cl)cc3Cl)ccc2O1 [Example 89CL, (S,E)-3-(6-(2,4,6-trichlorostyryl)-4-((3-(trifluoromethyl)-phenyl)sulfonyl)-3,4-dihydro-2H-benzo[b][1,4]oxazin-2-yl)propanoic acid]	
> 6.30 and 5.30 to 6.30		COC(=O)CC[C@H]1CN(S(=O)(=O)c2cccc(C(F)(F)F)c2)c2cc(/C=C/c3cccn4ccnc34)ccc2O1 [Example 89DE, methyl (S,E)-3-(6-(2-(imidazo[1,2-a]pyridin-8-yl)vinyl)-4-((3-(trifluoromethyl)-phenyl)sulfonyl)-3,4-dihydro-2H-benzo[b][1,4]oxazin-2-yl)propanoate]	
5.30 to 6.30		CCOc1ncc(C(F)(F)F)cc1S(=O)(=O)N1C[C@H](CCC(=O)OC)Oc2ccc(C=C3CCCCC3)cc21 [Example 95A, methyl (S)-3-(6-(cyclohexylidenemethyl)-4-((2-ethoxy-5-(trifluoromethyl)pyridin-3-yl)sulofnyl)-3,4-dihydro-2H-benzo[b][1,4]oxazin-2-yl)propanoate]	
5.30 to 6.30		O=C(O)CC[C@H]1CN(S(=O)(=O)c2cc(C(F)(F)F)cnc2OCCO)c2cc(C=C3CCC(O)CC3)ccc2O1 (stereo partly drawn) [Example 95V, 3-((2S)-6-((4-hydroxycyclohexylidene)-methyl)-4-((2-(2-hydroxyethoxy)-5-(trifluoromethyl)pyridin-3-yl)sulfonyl)-3,4-dihydro-2H-benzo[b][1,4]oxazin-2-yl)propanoic acid]	
5.30 to 6.30		O=C(O)CC[C@H]1CN(S(=O)(=O)c2cc(C(F)(F)F)cnc2OCCO)c2cc(/C=C3\CCCOC3)ccc2O1 [Example 95X, (S,E)-3-(6-((dihydro-2H-pyran-3(4H)-ylidene)methyl)-4-((2-(2-hydroxyethoxy)-5-(trifluoromethyl)pyridin-3-yl)sulfonyl)-3,4-dihydro-2H-benzo[b][1,4]oxazin-2-yl)propanoic acid]	
	5.30 to 6.30	C[C@@H]1[C@H](NC(=O)Nc2ccccn2)Cc2ccc(/C=C/c3c(F)cccc3C(F)(F)F)cc2N1S(=O)(=O)c1cccc(C(F)(F)F)c1 [Example 116M, 1-((2R,3R)-7-((E)-2-fluoro-6-(trifluoromethyl)styryl)-2-methyl-1-((3-(trifluoro-methyl)phenyl)sulfonyl)-1,2,3,4-tetrahydroquinolin-3-yl)-3-(pyridin-2-yl)urea]	*** (a value in the range of greater than 150 to 200)
	> 6.30	CNC(=O)N[C@@H]1Cc2ccc(/C=C(\C)c3c(F)cccc3Cl)cc2N(S(=O)(=O)c2cccc(C(F)(F)F)c2)[C@@H]1C [Example 145, 1-((2R,3R)-7-((E)-2-(2-Chloro-6-fluorophenyl)prop-1-en-1-yl)-2-methyl-1-((3-(trifluoromethyl)phenyl)sulfonyl)-1,2,3,4-tetrahydroquinolin-3-yl)-3-methylurea]	** (a value in the range of greater than 90 to 150)

More lines, now with the values behind:

SMILES	pEC50 (RORγ-LBD TR-FRET)	pEC50 (RORγ-LBD TR-FRET assay)	TR-FRET Assay Max Response (RORγ-LBD TR-FRET assay)
O=C(O)CC[C@H]1CN(S(=O)(=O)c2cccc(C(F)(F)F)c2)c2cc(/C=C/c3ccnn4cccc34)ccc2O1 [Example 89BM, (S,E)-3-(6-(2-(pynolo[1,2-b]pyridazin-4-yl)vinyl)-4-((3-(trifluoromethyl)phenyl)sulfonyl)-3,4-dihydro-2H-benzo[b][1,4]oxazin-2-yl)propanoic acid]	5.30 to 6.30		
Cc1noc(C)c1/C=C/c1ccc2c(c1)N(S(=O)(=O)c1cccc(C(F)(F)F)c1)C[C@H](CCC(=O)O)O2 [Example 89BR, (S,E)-3-(6-(2-(3,5-dimethylisoxazol-4-yl)vinyl)-4-((3-(trifluoromethyl)phenyl)sulfonyl)-3,4-dihydro-2H-benzo[b][1,4]-oxazin-2-yl)propanoic acid]	< 5.00		
O=C(O)CC[C@H]1CN(S(=O)(=O)c2cccc(C(F)(F)F)c2)c2cc(/C=C/c3c[nH]nc3C(F)(F)F)ccc2O1 [Example 89BT, (S,E)-3-(6-(2-(3-(trifluoromethyl)-1H-pyrazol-4-yl)vinyl)-4-((3-(trifluoromethyl)phenyl)-sulfonyl)-3,4-dihydro-2H-benzo[b][1,4]oxazin-2-yl)propanoic acid]	< 5.00		
Cn1ccnc1/C=C/c1ccc2c(c1)N(S(=O)(=O)c1cccc(C(F)(F)F)c1)C[C@H](CCC(=O)O)O2 [Example 89BU, (S,E)-3-(6-(2-(1-methyl-1H-imidazol-2-yl)vinyl)-4-((3-(trifluoromethyl)phenyl)sulfonyl)-3,4-dihydro-2H-benzo[b][1,4]-oxazin-2-yl)propanoic acid]	5.00 to 5.30		
CS(=O)(=O)c1cccc(/C=C/c2ccc3c(c2)N(S(=O)(=O)c2cccc(C(F)(F)F)c2)C[C@H](CCC(=O)O)O3)c1 [Example 89BV, (S,E)-3-(6-(3-(methylsulfonyl)-styryl)-4((3-(trifluoromethyl)-phenyl)sulfonyl)-3,4-dihydro-2H-benzo[b][1,4]oxazin-2-yl)propanoic acid]	< 5.00		
Cn1cc(/C=C/c2ccc3c(c2)N(S(=O)(=O)c2cccc(C(F)(F)F)c2)C[C@H](CCC(=O)O)O3)c(C(F)(F)F)n1 [Example 89BY, (S,E)-3-(6-(2-(1-methyl-3-(trifluoromethyl)-1H-pyrazol-4-yl)vinyl)-4-((3-(trifluoromethyl)-phenyl)sulfonyl)-3,4-dihydro-2H-benzo[b][1,4]oxazin-2-yl)propanoic acid]	< 5.00		
O=C(O)CC[C@H]1CN(S(=O)(=O)c2cccc(C(F)(F)F)c2)c2cc(/C=C/c3c(Cl)cc(OC(F)(F)F)cc3Cl)ccc2O1 [Example 89CN, (S,E)-3-(6-(2,6-dichloro-4-(trifluoromethoxy)styryl)-4-((3-(trifluoromethyl)phenyl)sulfonyl)-3,4-dihydro-2H-benzo[b][1,4]-oxazin-2-yl)propanoic acid]	5.30 to 6.30		
O=C(O)CC[C@H]1CN(S(=O)(=O)c2cccc(OC(F)F)c2)c2cc(/C=C/c3nccnc3Cl)ccc2O1 [Example 89DS, (S,E)-3-(6-(2-(3-chloropyrazin-2-yl)vinyl)-4-((3-(difluoromethoxy)phenyl)sulfonyl)-3,4-dihydro-2H-benzo[b][1,4]-oxazin-2-yl)propanoic acid]	< 5.00		
COC(=O)CC[C@H]1CN(S(=O)(=O)c2cc(C(F)(F)F)cnc2OC(C)C)c2cc(/C=C/c3c(F)cccc3Cl)ccc2O1 [Example 89FL, methyl (S,E)-3-(6-(2-chloro-6-fluorostyryl)-4-((2-isopropoxy-5-(trifluoromethyl)pyridin-3-yl)sulfonyl)-3,4-dihydro-2H-benzo[b][1,4]oxazin-2-yl)propanoate]	5.30 to 6.30		
Cc1noc(C)c1NC(=O)N[C@@H]1Cc2ccc(/C=C/c3c(F)cccc3C(F)(F)F)cc2N(S(=O)(=O)c2cccc(C(F)(F)F)c2)[C@@H]1C [Example 116L, 1-(3,5-dimethylisoxazol-4-yl)-3-((2R,3R)-7-((E)-2-fluoro-6-(trifluoromethyl)styryl)-2-methyl-1-((3-(trifluoro-methyl)phenyl)sulfonyl)-1,2,3,4-tetrahydroquinolin-3-yl)urea]		> 6.30	*** (a value in the range of greater than 150 to 200)
COC(=O)N[C@@H]1Cc2ccc(/C=C(\C)c3c(F)cccc3Cl)cc2N(S(=O)(=O)c2cccc(C(F)(F)F)c2)[C@@H]1C [Example 143, Methyl ((2R,3R)-7-((E)-2-(2-chloro-6-fluorophenyl)prop-1-en-1-yl)-2-methyl-1-((3-(trifluoromethyl)phenyl)sulfonyl)-1,2,3,4-tetrahydroquinolin-3-yl)carbamate]		> 6.30	** (a value in the range of greater than 90 to 150)
